Experimental data published in ChEMBL document CHEMBL1201862, “PubChem BioAssay data set” (2004).
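Following 48 hours of exposure in 96-well plates, responses at five concentrations were used to interpolate endpoints linearly. GI50: concentration for 50% inhibition of growth.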 Activity calls are given as the source filed them. No stated cut-off is given here; in the data, active = GI50 up to about 1.1 µM and inactive = higher.

What was measured:
Test in all cases: NCI anticancer screen, dose series, 48 h
SNB-19 = test system: SNB-19
COLO 205 = test system: COLO 205
U-251 = test system: U-251
T47D = test system: T47D
Hs-578T = test system: Hs-578T
SF-268 = test system: SF-268
A498 = test system: A498
NCI-H522 = test system: NCI-H522
A549 = test system: A549
CAKI-1 = test system: CAKI-1
SF-539 = test system: SF-539
PC-3 = test system: PC-3
OVCAR-3 = test system: OVCAR-3
NCI/ADR-RES = test system: NCI/ADR-RES
SF-295 = test system: SF-295
MDA-MB-435 = test system: MDA-MB-435
NCI-H460 = test system: NCI-H460
SN12C = test system: SN12C
KM12 = test system: KM12
HCT-116 = test system: HCT-116

| Structure (SMILES) | GI50 (SNB-19) | GI50 (COLO 205) | GI50 (U-251) | GI50 (T47D) | GI50 (Hs-578T) | GI50 (SF-268) | GI50 (A498) | GI50 (NCI-H522) | GI50 (A549) | GI50 (CAKI-1) | GI50 (SF-539) | GI50 (PC-3) | GI50 (OVCAR-3) | GI50 (NCI/ADR-RES) | GI50 (SF-295) | GI50 (MDA-MB-435) | GI50 (NCI-H460) | GI50 (SN12C) | GI50 (KM12) | GI50 (HCT-116) |
| --- | --- | --- | --- | --- | --- | --- | --- | --- | --- | --- | --- | --- | --- | --- | --- | --- | --- | --- | --- | --- |
| CC(=O)Oc1cc2c(cc1OCC(F)(F)F)[C@H]1CC[C@]3(C)[C@@H](OC(C)=O)CC[C@H]3[C@@H]1CC2=O | 18.8 µM (inactive) | 30.8 µM (inactive) | 16.4 µM (inactive) | 23.3 µM (inactive) | 13.7 µM (inactive) | 21.1 µM (inactive) | 6.18 µM (inactive) | 20 µM (inactive) | 17.6 µM (inactive) | 17.4 µM (inactive) | 19.3 µM (inactive) | 14.5 µM (inactive) | 19.5 µM (inactive) | 15.3 µM (inactive) | 25.1 µM (inactive) | 21.6 µM (inactive) | 26.9 µM (inactive) | 21 µM (inactive) | 27.7 µM (inactive) | 19.3 µM (inactive) |
| Cc1c(-c2nc(N)nc(C3CC3)c2C)nc(N)nc1C1CC1 | > 100 µM (inactive) | > 100 µM (inactive) | > 100 µM (inactive) | > 100 µM (inactive) | > 100 µM (inactive) | > 100 µM (inactive) | > 100 µM (inactive) | > 100 µM (inactive) | > 100 µM (inactive) | > 100 µM (inactive) | > 100 µM (inactive) | > 100 µM (inactive) | > 100 µM (inactive) | > 100 µM (inactive) | > 100 µM (inactive) | > 100 µM (inactive) | > 100 µM (inactive) | > 100 µM (inactive) | > 100 µM (inactive) | > 100 µM (inactive) |
| CC(=O)OC[C@@]1(C)[C@@H]2[C@@H]3[C@@]4(CO[C@]3(C)C(=O)[C@@]3(O)C[C@H](C)[C@H](OC(C)=O)[C@@H]3[C@H]4OC(C)=O)[C@H](OC(=O)c3ccccc3)C[C@@H]21 | > 100 µM (inactive) | > 100 µM (inactive) | > 100 µM (inactive) | > 100 µM (inactive) | > 100 µM (inactive) | > 100 µM (inactive) | > 100 µM (inactive) | > 100 µM (inactive) | > 100 µM (inactive) | > 100 µM (inactive) | > 100 µM (inactive) | > 100 µM (inactive) | > 100 µM (inactive) | > 100 µM (inactive) | > 100 µM (inactive) | > 100 µM (inactive) | > 100 µM (inactive) | > 100 µM (inactive) | > 100 µM (inactive) | > 100 µM (inactive) |
| Cn1c(=O)c2ccccc2c2ccccc21 | 64 µM (inactive) | 34.3 µM (inactive) | 57.1 µM (inactive) | 57.8 µM (inactive) | 44.5 µM (inactive) | 40.6 µM (inactive) | 30.8 µM (inactive) | 36.6 µM (inactive) | 53.8 µM (inactive) | 24.7 µM (inactive) | 38 µM (inactive) | 71.6 µM (inactive) | 52.7 µM (inactive) | 37 µM (inactive) | 48.4 µM (inactive) | 56.8 µM (inactive) | 29.3 µM (inactive) | 49.2 µM (inactive) | 72.9 µM (inactive) | 45 µM (inactive) |
| N/C(=N\N=C\c1nc2ccccc2o1)c1cnccn1 | > 100 µM (inactive) | > 100 µM (inactive) | 35.6 µM (inactive) | 51.4 µM (inactive) | > 100 µM (inactive) | > 100 µM (inactive) | > 100 µM (inactive) | > 100 µM (inactive) | > 100 µM (inactive) | > 100 µM (inactive) | > 100 µM (inactive) | > 100 µM (inactive) | > 100 µM (inactive) | > 100 µM (inactive) | 87.9 µM (inactive) | > 100 µM (inactive) | 72.9 µM (inactive) | > 100 µM (inactive) | > 100 µM (inactive) | > 100 µM (inactive) |
| N#CCCN(CCC#N)c1ccc(C(/N=N/c2ccc(Cl)cc2)=N\c2ccccc2)cc1 | 12.2 µM (inactive) | 3.2 µM (inactive) | 17.6 µM (inactive) | 8.55 µM (inactive) | 18.9 µM (inactive) | 13.2 µM (inactive) | 17.6 µM (inactive) | 15.1 µM (inactive) | 14.1 µM (inactive) | 12.2 µM (inactive) | 14.9 µM (inactive) | 12.6 µM (inactive) | 9.77 µM (inactive) | 10.8 µM (inactive) | 1.06 µM (active) | 11 µM (inactive) | 7.78 µM (inactive) | 18.4 µM (inactive) | 11.4 µM (inactive) | 12.1 µM (inactive) |
| Nc1ccc2c(c1)C(=O)c1ccc(F)cc1-2 | > 100 µM (inactive) | > 100 µM (inactive) | 40.8 µM (inactive) | > 100 µM (inactive) | > 100 µM (inactive) | > 100 µM (inactive) | > 100 µM (inactive) | > 100 µM (inactive) | > 100 µM (inactive) | > 100 µM (inactive) | > 100 µM (inactive) | > 100 µM (inactive) | > 100 µM (inactive) | > 100 µM (inactive) | > 100 µM (inactive) | > 100 µM (inactive) | > 100 µM (inactive) | > 100 µM (inactive) | > 100 µM (inactive) | 88.5 µM (inactive) |
| O=C(c1ccccc1)c1ccc2c(c1)nc1n2C(c2c(Cl)cccc2Cl)SC1 (stereo not given) | 77.1 µM (inactive) | 45.6 µM (inactive) | 69.5 µM (inactive) | 14.7 µM (inactive) | 84.1 µM (inactive) | 67.5 µM (inactive) | 58.7 µM (inactive) | 55.8 µM (inactive) | 32.7 µM (inactive) | 70.6 µM (inactive) | > 100 µM (inactive) | 38.1 µM (inactive) | 38.8 µM (inactive) | 40.3 µM (inactive) | 27.6 µM (inactive) | 59.2 µM (inactive) | 40.2 µM (inactive) | > 100 µM (inactive) | 19.9 µM (inactive) | 29 µM (inactive) |
| O=C1c2ccccc2C(=O)c2c(NCC3CO3)cccc21 (stereo not given) | > 57.3 µM (inactive) | > 53.1 µM (inactive) | 14 µM (inactive) | > 100 µM (inactive) | 38.4 µM (inactive) | 7.5 µM (inactive) | 34.4 µM (inactive) | 23.2 µM (inactive) | 57 µM (inactive) | 4.75 µM (inactive) | > 45.3 µM (inactive) | 16.9 µM (inactive) | 15.4 µM (inactive) | 9.91 µM (inactive) | 26.5 µM (inactive) | 7.59 µM (inactive) | > 64.7 µM (inactive) | 7.66 µM (inactive) | 18.6 µM (inactive) | 7.01 µM (inactive) |
| CC1(C)[C@@H]2CC[C@@]1(C)C1(S[S+]1[O-])C21Cc2ccccc2C1 (stereo not given in full) | > 100 µM (inactive) | 30.6 µM (inactive) | 24.9 µM (inactive) | 21.6 µM (inactive) | 44.2 µM (inactive) | 33.1 µM (inactive) | 28.7 µM (inactive) | 15.8 µM (inactive) | 36.8 µM (inactive) | 20.4 µM (inactive) | 24.5 µM (inactive) | 17.9 µM (inactive) | 31.7 µM (inactive) | 25.6 µM (inactive) | 57.1 µM (inactive) | 29.4 µM (inactive) | 21.5 µM (inactive) | 18.1 µM (inactive) | 56.1 µM (inactive) | 14.7 µM (inactive) |
